Results taken from publication PMC8910387, “Systematic Comparison of Beetle Luciferase-Luciferin Pairs as Sources of Near-Infrared Light for In Vitro and In Vivo Applications” (International Journal of Molecular Sciences, 2022).

How the values were obtained:
Assay in all cases: bioluminescence peak-height (V0) kinetics
Luc2 [1] = target: T1, Luc2 (Photinus pyralis, UniProt P08659); assay type: biochemical; details: Mg-ATP, O2; assay details in supplement; read-out: Km (μM) ^4
T1 construct: mammalian codon optimized P. pyralis Luc; pGEX-6P-2, E. coli BL21(DE3)pLysS, GST removed, N-terminal GlyProLeuGlySer kept; Mut51 from pET28a (His-tag)
Description: (§1) bioluminescence peak-height (V0) kinetics on Luc2

[2] = tested on: T2, CBR (tested as CBR2, CBR2opt); assay type: biochemical; details: Mg-ATP, O2; assay details in supplement; read-out: Km (μM) ^4
T2 construct: mouse codon optimized; pGEX-6P-2, E. coli BL21(DE3)pLysS, GST removed, N-terminal GlyProLeuGlySer kept
Description: bioluminescence peak-height (V0) kinetics on CBR (tested as CBR2, CBR2opt)

Fluc_red = target: T3, Fluc_red (Photinus pyralis, UniProt P08659, S284T/E354R/D357Y, form not given); assay type: biochemical; details: Mg-ATP, O2; assay details in supplement; read-out: Km (μM) ^4
T3 construct: pET16b, His-tag
Description: bioluminescence peak-height (V0) kinetics on Fluc_red

PLR3 = tested on: T4, PLR3; assay type: biochemical, Photinus pyralis / Luciola italica; details: Mg-ATP, O2; assay details in supplement; read-out: Km (μM) ^4
T4 construct: G246A/F250H in mammalian codon optimized PLR1; pGEX-6P-2, N-terminal GlyProLeuGlySer kept
Description: bioluminescence peak-height (V0) kinetics on PLR3

Luc2 [3] = target: T5, Luc2 (Photinus pyralis, UniProt P08659, F243M/S347G, form not given); assay type: biochemical; details: Mg-ATP, O2; assay details in supplement; Mut51, His-tagged; read-out: Km (μM) ^4
T5 construct: mammalian codon optimized P. pyralis Luc; pGEX-6P-2, E. coli BL21(DE3)pLysS, GST removed, N-terminal GlyProLeuGlySer kept; Mut51 from pET28a (His-tag)
Description: as §1

T1 sequence (P08659 whole entry): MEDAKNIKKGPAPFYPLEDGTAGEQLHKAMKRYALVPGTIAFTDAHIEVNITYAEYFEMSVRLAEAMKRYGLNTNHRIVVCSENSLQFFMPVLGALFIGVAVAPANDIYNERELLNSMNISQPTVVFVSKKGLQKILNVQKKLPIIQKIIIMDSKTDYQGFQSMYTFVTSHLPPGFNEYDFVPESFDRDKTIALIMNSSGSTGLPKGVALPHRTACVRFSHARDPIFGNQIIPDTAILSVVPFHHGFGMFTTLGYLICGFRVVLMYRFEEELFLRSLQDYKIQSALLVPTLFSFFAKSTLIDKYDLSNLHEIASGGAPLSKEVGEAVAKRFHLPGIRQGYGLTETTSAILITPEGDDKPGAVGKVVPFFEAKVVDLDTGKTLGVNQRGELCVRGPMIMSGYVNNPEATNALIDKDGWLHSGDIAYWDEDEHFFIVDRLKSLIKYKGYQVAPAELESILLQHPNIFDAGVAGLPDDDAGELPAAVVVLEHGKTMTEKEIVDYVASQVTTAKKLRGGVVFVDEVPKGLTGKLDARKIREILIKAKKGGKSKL
T5 sequence (P08659 whole entry F243M/S347G, form open): as the sequence (P08659 whole entry) above, with F243M, S347G counted along it
T3 sequence (P08659 whole entry S284T/E354R/D357Y, form open): as the sequence (P08659 whole entry) above, with S284T, E354R, D357Y counted along it

SMILES | Km (Luc2 [1]) [µM] | Km [2] [µM] | also measured
O=C(O)[C@H]1CSC(c2nc3cc4c(cc3s2)NCC4)=N1 [CycLuc1, (S)-2-(6,7-dihydro-5H-thiazolo[4,5-f]indol-2-yl)-4,5-dihydrothiazole-4-carboxylic acid] | 0.61 ± 0.2 |  | 
O=C(O)[C@H]1CSC(/C=C/c2nc3ccc(O)cc3s2)=N1 [iLH2, (S,E)-2-(2-(6-hydroxybenzo[d]thiazol-2-yl)vinyl)-4,5-dihydrothiazole-4-carboxylic acid] | 0.13 ± 0.05 | 0.9 ± 0.08 | Km (Fluc_red): 0.17 ± 0.05 µM
Nc1ccc2c(ccc3nc(C4=N[C@@H](C(=O)O)CS4)sc32)c1 [NH2-NpLH2] | 3.3 ± 0.6 | 0.8 ± 0.1 | 
O=C(O)[C@H]1CSC(c2nc3ccc4cc(O)cnc4c3s2)=N1 [OH-QLH2] | 1.8 ± 0.6 |  | Km (PLR3): 1.6 ± 0.1 µM
O=C(O)[C@H]1CSC(c2nc3ccc(O)cc3s2)=N1 [LH2, (S)-2-(6-hydroxybenzo[d]thiazol-2-yl)-4,5-dihydrothiazole-4-carboxylic acid] |  | 250 ± 24 | 
Nc1cnc2c(ccc3nc(C4=N[C@@H](C(=O)O)CS4)sc32)c1 [NH2-QLH2] | 1.5 ± 0.2 |  | 
O=C(O)[C@H]1CSC(c2nc3c(Br)cc(O)cc3s2)=N1 [4′-BrLuc, (S)-2-(4-bromo-6-hydroxybenzo[d]thiazol-2-yl)-4,5-dihydrothiazole-4-carboxylic acid] | 44 ± 11 |  | Km (Luc2 [3]): 2.3 ± 0.2 µM
O=C(O)[C@H]1CSC(c2nc3ccc4cc(O)ccc4c3s2)=N1 [OH-NpLH2] |  | 0.93 ± 0.13 | 
Nc1ccc2nc(C3=N[C@@H](C(=O)O)CS3)sc2c1 [NH2-LH2, (S)-2-(6-aminobenzo[d]thiazol-2-yl)-4,5-dihydrothiazole-4-carboxylic acid] |  | 9.5 ± 1.3 | 
